Measurements published in ChEMBL document CHEMBL2440076, “New triarylpyrazoles as broad-spectrum anticancer agents: design, synthesis, and biological evaluation” (Eur J Med Chem, 2013).

Legend:
HCT-116 = experiment: Growth inhibition of human HCT116 cells assessed as cell growth at 10 uM after 48 hrs by sulforhodamine B assay; assay type: functional; details: HCT-116, 48 h, read-out: Activity
OVCAR-3 = experiment: Growth inhibition of human OVCAR3 cells after 48 hrs by sulforhodamine B assay; assay type: functional, cell-based; details: OVCAR-3, 48 h
SK-MEL-2 = experiment: Growth inhibition of human SK-MEL-2 cells assessed as cell growth at 10 uM after 48 hrs by sulforhodamine B assay; assay type: functional; details: SK-MEL-2, 48 h, read-out: Activity
HL-60(TB) = experiment: Growth inhibition of human HL-60(TB) cells after 48 hrs by sulforhodamine B assay; assay type: functional; details: HL-60, 48 h
786-0 [1] = experiment: Growth inhibition of human 786-0 cells assessed as cell growth at 10 uM after 48 hrs by sulforhodamine B assay; assay type: functional; details: 786-0, 48 h, read-out: Activity
HOP-62 = experiment: Growth inhibition of human HOP62 cells assessed as cell growth at 10 uM after 48 hrs by sulforhodamine B assay; assay type: functional; details: HOP-62, 48 h, read-out: Activity
NCI-H23 [2] = experiment: Growth inhibition of human NCI-H23 cells after 48 hrs by sulforhodamine B assay; assay type: functional; details: NCI-H23, 48 h
SK-OV-3 [3] = experiment: Growth inhibition of human SKOV3 cells after 48 hrs by sulforhodamine B assay; assay type: functional; details: SK-OV-3, 48 h
SK-MEL-5 = experiment: Growth inhibition of human SK-MEL-5 cells after 48 hrs by sulforhodamine B assay; assay type: functional; details: SK-MEL-5, 48 h
HT-29 [4] = experiment: Growth inhibition of human HT-29 cells assessed as cell growth at 10 uM after 48 hrs by sulforhodamine B assay; assay type: functional; details: HT-29, 48 h, read-out: Activity
SR = experiment: Growth inhibition of human SR cells after 48 hrs by sulforhodamine B assay; assay type: functional
HOP-92 = experiment: Growth inhibition of human HOP92 cells after 48 hrs by sulforhodamine B assay; assay type: functional, cell-based; details: HOP-92, 48 h
HT-29 [5] = experiment: Growth inhibition of human HT-29 cells after 48 hrs by sulforhodamine B assay; assay type: functional; details: HT-29, 48 h
786-0 [6] = experiment: Growth inhibition of human 786-0 cells after 48 hrs by sulforhodamine B assay; assay type: functional; details: 786-0, 48 h
NCI-H460 = experiment: Growth inhibition of human NCI-H460 cells assessed as cell growth at 10 uM after 48 hrs by sulforhodamine B assay; assay type: functional; details: NCI-H460, 48 h, read-out: Activity
M14 [7] = experiment: Growth inhibition of human M14 cells after 48 hrs by sulforhodamine B assay; assay type: functional; details: M14, 48 h
SNB-19 [8] = experiment: Growth inhibition of human SNB19 cells after 48 hrs by sulforhodamine B assay; assay type: functional; details: SNB-19, 48 h
ACHN = experiment: Growth inhibition of human ACHN cells after 48 hrs by sulforhodamine B assay; assay type: functional
PC-3 = experiment: Growth inhibition of human PC3 cells assessed as cell growth at 10 uM after 48 hrs by sulforhodamine B assay; assay type: functional; details: PC-3, 48 h, read-out: Activity
SNB-19 [9] = experiment: Growth inhibition of human SNB19 cells assessed as cell growth at 10 uM after 48 hrs by sulforhodamine B assay; assay type: functional; details: SNB-19, 48 h, read-out: Activity
OVCAR-8 = experiment: Growth inhibition of human OVCAR8 cells assessed as cell growth at 10 uM after 48 hrs by sulforhodamine B assay; assay type: functional; details: OVCAR-8, 48 h, read-out: Activity
SK-OV-3 [10] = experiment: Growth inhibition of human SKOV3 cells assessed as cell growth at 10 uM after 48 hrs by sulforhodamine B assay; assay type: functional; details: SK-OV-3, 48 h, read-out: Activity
SF-268 = experiment: Growth inhibition of human SF268 cells assessed as cell growth at 10 uM after 48 hrs by sulforhodamine B assay; assay type: functional; details: SF-268, 48 h, read-out: Activity
LOX IMVI [11] = experiment: Growth inhibition of human LOXIMVI cells after 48 hrs by sulforhodamine B assay; assay type: functional
SK-MEL-28 = experiment: Growth inhibition of human SK-MEL-28 cells after 48 hrs by sulforhodamine B assay; assay type: functional; details: SK-MEL-28, 48 h
UO-31 = experiment: Growth inhibition of human UO31 cells assessed as cell growth at 10 uM after 48 hrs by sulforhodamine B assay; assay type: functional; details: UO-31, 48 h, read-out: Activity
M14 [12] = experiment: Growth inhibition of human M14 cells assessed as cell growth at 10 uM after 48 hrs by sulforhodamine B assay; assay type: functional; details: M14, 48 h, read-out: Activity
UACC-257 = experiment: Growth inhibition of human UACC257 cells after 48 hrs by sulforhodamine B assay; assay type: functional; details: UACC-257, 48 h
Malme-3M = experiment: Growth inhibition of human MALME-3M cells assessed as cell growth at 10 uM after 48 hrs by sulforhodamine B assay; assay type: functional; details: read-out: Activity
LOX IMVI [13] = experiment: Growth inhibition of human LOXIMVI cells assessed as cell growth at 10 uM after 48 hrs by sulforhodamine B assay; assay type: functional; details: read-out: Activity
COLO 205 = experiment: Growth inhibition of human COLO205 cells assessed as cell growth at 10 uM after 48 hrs by sulforhodamine B assay; assay type: functional; details: COLO 205, 48 h, read-out: Activity
UACC-62 = experiment: Growth inhibition of human UACC62 cells after 48 hrs by sulforhodamine B assay; assay type: functional; details: UACC-62, 48 h
NCI-H23 [14] = experiment: Growth inhibition of human NCI-H23 cells assessed as cell growth at 10 uM after 48 hrs by sulforhodamine B assay; assay type: functional; details: NCI-H23, 48 h, read-out: Activity
[15] = Growth inhibition of human HCC2998 cells after 48 hrs by sulforhodamine B assay; assay type: functional; details: HCC 2998, 48 h
[16] = read-out: LC50 (the source's name)

For COc1cc(-c2nn(-c3cccc(NC(=O)c4ccc(N5CCOCC5)c(C(F)(F)F)c4)c3)cc2-c2ccncc2)ccc1Cl, the growth at 10 µM (HCT-116) was 8.35%, the GI50 (OVCAR-3) was 222 nM and the IC50 (OVCAR-3) was 220 nM. For the same compound, the TGI (OVCAR-3) was 1030 nM, the CC50 (OVCAR-3; [16]) was over 100000 nM and the growth at 10 µM (SK-MEL-2) was -8.84%. For the same compound, the GI50 (HL-60(TB)) was 298 nM, the TGI (HL-60(TB)) was over 100000 nM and the CC50 (HL-60(TB); [16]) was over 100000 nM. It also gave a growth at 10 µM (786-0 [1]) of -3.26%, a growth at 10 µM (HOP-62) of 29.4% and a GI50 (NCI-H23 [2]) of 870 nM. The LC50 (NCI-H23 [2]) was over 100000 nM, the TGI (NCI-H23 [2]) was 20700 nM and the GI50 (SK-OV-3 [3]) was 340 nM. The TGI (SK-OV-3 [3]) was 4730 nM, the CC50 (SK-OV-3 [3]; [16]) was over 100000 nM and the GI50 (SK-MEL-5) was 112 nM. For the same compound, the LC50 (concentration killing 50% of cells) (SK-MEL-5) was 7640 nM, the TGI (SK-MEL-5) was 675 nM and the growth at 10 µM (HT-29 [4]) was -13.3%. The GI50 (SR) was 36.9 nM, the TGI (SR) was over 100000 nM and the CC50 (SR; [16]) was over 100000 nM. The GI50 (HOP-92) was 124 nM, the IC50 (HOP-92) was 120 nM and the LC50 (HOP-92) was over 100000 nM. For the same compound, the TGI (HOP-92) was 813 nM, the GI50 (HT-29 [5]) was 380 nM and the TGI (HT-29 [5]) was 1520 nM. The CC50 (HT-29 [5]; [16]) was over 100000 nM, the GI50 (786-0 [6]) was 819 nM and the CC50 (786-0 [6]; [16]) was over 100000 nM. For the same compound, the growth at 10 µM (NCI-H460) was 5.02%, the GI50 (M14 [7]) was 430 nM and the LC50 (concentration killing 50% of cells) (M14 [7]) was over 100000 nM. For the same compound, the TGI (M14 [7]) was 16000 nM, the GI50 (SNB-19 [8]) was 520 nM and the LC50 (concentration killing 50% of cells) (SNB-19 [8]) was over 100000 nM. The TGI (SNB-19 [8]) was over 100000 nM, the GI50 (ACHN) was 564 nM and the TGI (ACHN) was over 100000 nM. It also gave a CC50 (ACHN; [16]) of over 100000 nM, a growth at 10 µM (PC-3) of 8.17% and a growth at 10 µM (SNB-19 [9]) of 45.1%. It also gave a growth at 10 µM (OVCAR-8) of 5.23%, a growth at 10 µM (SK-OV-3 [10]) of 1.88% and a growth at 10 µM (SF-268) of 22.5%. The GI50 (LOX IMVI [11]) was 371 nM, the LC50 (LOX IMVI [11]) was over 100000 nM and the TGI (LOX IMVI [11]) was 6200 nM. For the same compound, the GI50 (SK-MEL-28) was 1390 nM, the LC50 (SK-MEL-28) was over 100000 nM and the TGI (SK-MEL-28) was over 100000 nM. For the same compound, the growth at 10 µM (UO-31) was 24.6%, the growth at 10 µM (M14 [12]) was 1.42% and the GI50 (UACC-257) was 935 nM. It also gave a TGI (UACC-257) of 8140 nM, a CC50 (UACC-257; [16]) of over 100000 nM and a growth at 10 µM (Malme-3M) of 36.2%. It also gave a growth at 10 µM (LOX IMVI [13]) of 13.7%, a growth at 10 µM (COLO 205) of -43.4% and a GI50 (UACC-62) of 266 nM. It also gave an LC50 (50% lethal concentration) (UACC-62) of over 100000 nM, a TGI (UACC-62) of 8200 nM and a growth at 10 µM (NCI-H23 [14]) of 15.6%. It also gave a GI50 [15] of 1070 nM, a TGI [15] of 5020 nM and a CC50 [15, 16] of over 100000 nM.
